Assays:
[1] = Gln and CBD concentration in the synovial fluid 8 hours after oral administration; conditions: 8 h after oral administration of 15 mg/Kg CBD + 500 mg/Kg Gln
Method: (§1) Three different water-soluble CBD oral formulae were tested, F #01 (20%), L #02 (2.5% CBD) and I #03 (20% CBD), and administered at 15 mg/Kg rat.
(§2) The three formulae were tested in combination with 500 mg/Kg Glucosamine (Gln).
(§3) The total administered volume was 10 mL/Kg (CBD+Gln).
(§4) The trial was performed on Sprague Dawley male rat (n=3/group).
(§5) A single dose containing CBD and Gln was provided PO at t=0.
Gln concentration in the synovial fluid was examined 8 hours after oral administration.

[2] = in vivo; conditions: male, Sprague Dawley, rat
Method: as §1, §2, §3, §4, §5
CBD and Gln plasma concentrations were examined 1, 4 and 8 hours following a single administration.

Compound	CBD in the synovial fluid [1]	decrease of Gln plasma concentration from the 4 h point [2]	concentration at 1 h ([2]; po, 500 mg/kg)	concentration at 4 h ([2]; po, 500 mg/kg)	concentration at 8 h ([2]; po, 500 mg/kg)
C=C(C)[C@@H]1CCC(C)=C[C@H]1c1c(O)cc(CCCCC)cc1O [CBD, Cannabidiol]	No CBD was detected				
N[C@H]1C(O)O[C@H](CO)[C@@H](O)[C@@H]1O (some centres unmarked) [Gln, Glucosamine]		94.0%	2.04 ng/mL	134 ng/mL	8 ng/mL

Source: patent US20210275556A1, “Cannabidiol Combination Compositions” (Companion Sciences. LLC, priority 2018, published 2021)
